Test results reported in patent US20180267019A1, “USE OF PEPTIDE HYDROGEL SCAFFOLDS FOR THREE-DIMENSIONAL THROUGHPUT DRUG DISCOVERY” (UNIVERSITY OF DELAWARE, priority 2015, published 2018).

Experiments:
medulloblastoma cells [1] = test: DMSO tolerance of medulloblastoma cells in hydrogel-cell constructs, 384-well plate; type: cell-based, human
Experimental: Unless noted otherwise, cell viability assays were performed in 384-well plates using the RealTime-Glo™ MT Cell Viability Assay from Promega. For each experiment two stock solutions were prepared. For the first solution, 50 mM HEPES (pH 7.4) buffer was mixed with 0.5 wt % MAX8 (5 mg MAX8 per mL buffer solution for a final 0.25 wt % MAX8 hydrogel construct). The second solution was a cell solution with 11×10^6 per mL of medulloblastoma cells in serum-free DMEM. The two stock solutions were thoroughly mixed 1:1 to create a cell/gel mixture and 4 μL of the mixture was added per well to a white 384 well assay plate (Corning) containing 41 μL culture medium per well. The cells were allowed to equilibrate for 24 hours before any luminescence was determined. […] The plate was incubated for 60 minutes at 37 C and the luminescence was measured using an Envision Multilevel Reader (Perkin Elmer).
Owing to its unique shear force properties, MAX8-medulloblastoma cell constructs were dispensed at room temperature into 384-well plates (2,000 cells in 4 μL of hydrogel) (Brandtech) with 50 μL of culture medium (DMEM with serum) using a BioTek microplate dispenser. […] 10 μL of the intermediate drug media was then added to the QC plates, and following 48 h of cell culture the cell viability was measured using RealTime-Glo and the previously described method.

medulloblastoma cells [2] = test: Treatment of MAX8-RGDS-encapsulated medulloblastoma cells and 2D monolayers with vismodegib, cell viability; type: cell-based, human; conditions: MAX8-RGDS 3D constructs vs 2D monolayers, 48 hours, FIG. 3B
Experimental: Vismodegib was added into the surrounding tissue culture medium of MAX8 hydrogel-cell constructs after 24 hours of cell seeding at the indicated concentrations. To limit the exposure of cultured cells to dimethyl sulfoxide (DMSO) from stock solutions of test compounds, 3.5 μL of stock solution was diluted in 1 mL of culture medium and then 20 μL of this solution was added to each well using the Janus workstation (PerkinElmer). Following 48 hours of cell culture the cell viability was measured as previously described using RealTime-Glo with a final concentration of 1×.

[3] = system: human medulloblastoma cells; test: RealTime-Glo cell viability of medulloblastoma cells encapsulated in MAX8 hydrogel-cell constructs; type: cell-based
Experimental: (§1) Human medulloblastoma cells were propagated in Dulbecco's […] Media (DMEM) supplemented with 10% fetal bovine serum and penicillin-streptomycin-glutamine at 37° C. and 5% CO2 using standard 2D cell culture protocols and tissue-culture treated plastic cell ware. For isolation of primary cerebellar granule precursor (CGP) cells, the cerebellum was dissected from P4-6 pups of C57BL/6 mice and dissociated into single cells using the Papain Dissociation System kit (Worthington Biochemical Corp, Freehold, N.J.). After filtering through a nylon mesh (70 μm pore size), the cells were briefly centrifuged and resuspended in Neurobasal medium supplemented with […] and B27.
In general and unless otherwise indicated, MAX8-cell constructs were prepared as 0.25 wt % MAX8 hydrogels. First, the peptide was dissolved in 50 mM HEPES buffer (pH 7.4) ([…] of hydrogel) and then an equal volume of single cell suspension in DMEM was added and gently mixed. Mixing the MAX8 solution with the culture medium triggers the intramolecular folding of the peptide, resulting in self-assembly into a hydrogel. For additional hydrogels with different concentrations of MAX8, the amount of peptide was adjusted but otherwise the same hydrogel assembly protocol was followed. The same procedures were followed when functionalized MAX8 was used to prepare hydrogel-cell constructs.
Unless noted otherwise, cell viability assays were performed in 384-well plates using the RealTime-Glo™ MT Cell Viability Assay from Promega. For each experiment two stock solutions were prepared. For the first solution, 50 mM HEPES (pH 7.4) buffer was mixed with 0.5 wt % MAX8 (5 mg MAX8 per mL buffer solution for a final 0.25 wt % MAX8 hydrogel construct). The second solution was a cell solution with 11×10^6 per mL of medulloblastoma cells in serum-free DMEM. The two stock solutions were thoroughly mixed 1:1 to create a cell/gel mixture and 4 μL of the mixture was added per well to a white 384 well assay plate (Corning) containing 41 μL culture medium per well. The cells were allowed to equilibrate for 24 hours before any luminescence was determined. 10× RealTime-Glo was added in 5 μL of media to each well already containing 45 μL to a final concentration of 1×. For cell viability assays in 96-well plates, the following volumes were used. 74 μL of DMEM cell media containing serum was added to each well, 16 μL of the previously mentioned 0.25 wt % MAX8 cell/gel construct was then added to each well. 10 μL of 10× RealTime-Glo was added to the wells for a final concentration of 1×. The plate was incubated for 60 minutes at 37 C and the luminescence was measured using an Envision Multilevel Reader (Perkin Elmer).

[4] = system: primary cerebellar granule precursors (CGPs); test: RealTime-Glo cell viability of primary cerebellar granule precursor cells encapsulated in MAX8; type: cell-based, C57BL/6 mice; conditions: 0.5 wt % MAX8, RealTime-Glo, FIG. 2B
Experimental: as §1
In general and unless otherwise indicated, MAX8-cell constructs were prepared as 0.25 wt % MAX8 hydrogels. First, the peptide was dissolved in 50 mM HEPES buffer (pH 7.4) ([…] of hydrogel) and then an equal volume of single cell suspension in DMEM was added and gently mixed. […]
Unless noted otherwise, cell viability assays were performed in 384-well plates using the RealTime-Glo™ MT Cell Viability Assay from Promega. […] The cells were allowed to equilibrate for 24 hours before any luminescence was determined. […] The plate was incubated for 60 minutes at 37 C and the luminescence was measured using an Envision Multilevel Reader (Perkin Elmer).

[5] = Hydrogel material properties (oscillatory rheology, gelation); type: physicochemical
Experimental: Rheology measurements were performed on an AR G2 rheometer (TA instruments) with a 20 mm stainless steel parallel plate geometry. […] Dynamic time sweep experiments (DTS) were performed to monitor the storage (G′) and loss (G″) modulus as a function of time (6 rad/s frequency, 0.2% strain) for 60 min. For shear-thinning experiments, the samples were subjected to 500 s^−1 steady-state shear for 60 s after which oscillatory measurement was performed at 6 rad/s frequency, 0.2% strain. Subsequently, recovery of the storage (G′) and loss (G″) modulus as a function of time was monitored for 30 min. Dynamic frequency (0.1-100 rad/s frequency, 1.0% strain) sweep experiments were performed to establish the frequency response of the samples. All measurements were performed in triplicates.

[6] = 0.5 wt % hydrogel, RealTime-Glo, FIG. 2C

In the case of `C[S+](C)[O-]` [DMSO, dimethyl sulfoxide], the “DMSO concentration at which medulloblastoma cells were viable” value (medulloblastoma cells [1]) is reported as “up to 1%”.

For `CS(=O)(=O)c1ccc(C(=O)Nc2ccc(Cl)c(-c3ccccn3)c2)c(Cl)c1` [vismodegib], the “sensitivity (dose response of cell viability), monolayers vs hydrogel cultures” value (medulloblastoma cells [2]) was “shift in dose response curves between monolayers and hydrogel cultures”.

In the case of “IKVAVVKVKVKVK-(V^DPPT)-KVEVKVKV-NH2 [MAX8-IKVAV]”, the “proliferation of medulloblastoma cells when compared to MAX8” value [3, 6] is reported as “increased the proliferation”.

In the case of “RGDSVKVKVKVK-(V^DPPT)-KVEVKVKV-NH2 [MAX8-RGDS]”, the “proliferation of medulloblastoma cells encapsulated in cell constructs, over native MAX8” value [3, 6] is reported as 1.4 fold.

In the case of VKVKVKVK-(V^DPPT)-KVEVKVKV-NH2 [MAX8], the “viability of medulloblastoma cells within MAX8-cell constructs” value ([3]; 0.25 or 0.5 wt % MAX8, RealTime-Glo, FIG. 2A) is reported as “viable for several days”, the “cell proliferation as a function of MAX8 concentration” value ([3]; 0.25 vs 0.5 wt % MAX8, FIG. 2A) is reported as “cell proliferation decreased with increasing MAX8 concentrations” and the “viability of primary CGPs within MAX8-cell constructs” value [4] is reported as “viable for several days”. For the same molecule, the “stiffness of the hydrogel” value ([5]; controllable by weight percent of the peptide) was “around 1000 Pa” and the gelation time ([5]; room temperature, physiological salt concentration and pH) was “gelates within a minute”.

With “YIGSRVKVKVKVK-(V^DPPT)-KVEVKVKV-NH2 [MAX8-YIGSR]” the “proliferation of medulloblastoma cells when compared to MAX8” value [3, 6] was “increased the proliferation”.
